By Km is commonly meant the substrate concentration at which the rate is half of its maximum. In general, Kd refers to the free concentration of one partner at which half of the binding sites on the other are occupied at equilibrium, for simple one-to-one binding.

In article PMC6382819, “Design strategy for serine hydroxymethyltransferase probes based on retro-aldol-type reaction” (Nature Communications, 2019) one finds Km and Kd data, which are given here for three compounds.

The structures appear in SMILES notation.

Assay [1] addresses T1, hSHMT1 (Homo sapiens, UniProt P34896).
T1 construct: gene SHMT1
T1 sequence (P34896 2-483): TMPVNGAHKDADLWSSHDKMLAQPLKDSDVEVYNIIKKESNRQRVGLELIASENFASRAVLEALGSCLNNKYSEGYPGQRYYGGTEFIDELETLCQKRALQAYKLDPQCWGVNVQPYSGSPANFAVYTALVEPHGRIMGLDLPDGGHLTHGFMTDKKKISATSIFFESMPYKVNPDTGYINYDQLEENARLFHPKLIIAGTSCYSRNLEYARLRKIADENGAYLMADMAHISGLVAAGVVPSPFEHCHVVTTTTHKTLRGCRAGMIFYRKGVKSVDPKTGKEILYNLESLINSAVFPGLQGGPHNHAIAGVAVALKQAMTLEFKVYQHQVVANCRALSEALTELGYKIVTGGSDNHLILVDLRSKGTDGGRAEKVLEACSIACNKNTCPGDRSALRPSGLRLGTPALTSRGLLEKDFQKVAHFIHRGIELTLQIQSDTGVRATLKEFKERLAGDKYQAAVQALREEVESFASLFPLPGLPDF
As to the kind of experiment: enzyme kinetics with recombinant hSHMT1 (retro-aldol turnover, fluorescence). The format is biochemical.

Assay [2] addresses T1, hSHMT1. Kind of assay: enzyme kinetics with recombinant hSHMT1 (UV absorption; […] NMR turnover). The class given is biochemical.
Assay [3] deals with T1, hSHMT1. Kind of assay: ITC; also DSF thermal shift and HPLC Ser-Gly conversion inhibition (IC50 […]). The class given is binding. A general note: ITC needs no label: the signal is the heat of the interaction.

For the compound `CN(C)c1ccc2cc([C@H](O)[C@H](N)C(=O)O)ccc2c1` [compound 1, fluorescent probe 1], the Km on hSHMT1 [1] came to 1810 ± 190 µM.

For `N[C@H](C(=O)O)[C@@H](O)c1ccc(F)cc1` [compound 2, 19F NMR probe 2], the Km at hSHMT1 [2] came out at 2750 ± 270 µM.

With `O=C(O)CCC(=O)Nc1ccc(-c2ccnc(-c3ccc(NC(=O)CCC(=O)O)cc3)n2)cc1` [Hit 1], the Kd on hSHMT1 [3] came out at 2 µM.
